Reference: publication PMC6316393, “Cytotoxic Sesterterpenes from Thai Marine Sponge Hyrtios erectus” (Marine Drugs, 2018)
Where two headings read alike, the source gives them in different places.

How the values were obtained:
[1] = system: A549 (non-small-cell lung cancer); assay: MTT cytotoxicity assay, A549
Procedure: (§1) The SI value is the ratio of IC50 of normal cell (MRC-5) and IC50 of cancer cell line.
(§2) Cytotoxic activity for adhesive cell lines including HepG2, HeLa, HuCCA-1, A549, H69AR, KB, T47D, MDA-MB-231, and MRC-5 cell lines were evaluated with the 3-(4,5-dimethylthiazol-2-yl)-2,5-diphenyltetrazoliumbromide (MTT) assay. For the non-adhesive MOLT-3 cell line, the cytotoxicity was assessed using the 2,3-bis-(2-methoxy-4-nitro-5-sulphenyl-(2H)-tetrazolium-5-carboxanilide (XTT) assay. Etoposide and doxorubicin were used as positive controls (Table 4)

HepG2 (hepatocarcinoma) = assay: MTT cytotoxicity assay, HepG2
Procedure: as §1, §2

[2] = system: MOLT-3 (acute lymphoblastic leukemia); assay: XTT cytotoxicity assay, MOLT-3; conditions: for selectivity index (SI), MOLT-3: ratio of IC50 of normal cell (MRC-5) and IC50 of MOLT-3
Procedure: as §1, §2

[3] = system: MDA-MB-231 (hormone independent breast cancer); assay: MTT cytotoxicity assay, MDA-MB-231
Procedure: as §1, §2

[4] = system: HeLa (human cervical carcinoma); assay: MTT cytotoxicity assay, HeLa
Procedure: as §1, §2

[5] = system: HuCCA-1 (human chlolangiocarcinoma); assay: MTT cytotoxicity assay, HuCCA-1
Procedure: as §1, §2

[6] = system: MRC-5 (normal embryonic lung cell); assay: MTT cytotoxicity assay, MRC-5 normal cells; conditions: read-out: Cytotoxicity IC50, MRC-5; MRC-5 normal cell line, MTT assay
Procedure: as §1, §2

[7] = MTT cytotoxicity assay, MRC-5 normal cells; conditions: human
Procedure: as §1, §2

A549 cells = system: A549 cells; set-up: method as in PMID 12662110; conditions: reported in the literature; read-out: Cytotoxicity IC50, A549; cited from earlier work
[8] = system: T47D (hormone dependent breast cancer); assay: MTT cytotoxicity assay, T47D; assay type: cell-based; conditions: Homo sapiens, T47D cell line
Procedure: (§3) Cytotoxic activity for adhesive cell lines including HepG2, HeLa, HuCCA-1, A549, H69AR, KB, T47D, MDA-MB-231, and MRC-5 cell lines were evaluated with the 3-(4,5-dimethylthiazol-2-yl)-2,5-diphenyltetrazoliumbromide (MTT) assay [25, 26]. For the non-adhesive MOLT-3 cell line, the cytotoxicity was assessed using the 2,3-bis-(2-methoxy-4-nitro-5-sulphenyl-(2H)-tetrazolium-5-carboxanilide (XTT) assay [27]. Etoposide and doxorubicin were used as positive controls (Table 4)

[9] = system: KB (human epidermoid carcinoma in the mouth); assay: MTT cytotoxicity assay, KB; assay type: cell-based; conditions: KB cell line
Procedure: as §1, §2

[10] = system: H69AR (multidrug resistance small-cell lung cancer); assay: MTT cytotoxicity assay, H69AR; assay type: cell-based; conditions: Homo sapiens, H69AR cell line
Procedure: as §3

[11] = system: L1210 (mouse lymphocytic leukemia); conditions: read-out: Cytotoxicity IC50, L1210, cited from earlier work
[12] = system: KB (mouth epidermal carcinoma); set-up: method as in PMID 8149454; conditions: previously reported; read-out: Cytotoxicity IC50, KB; cited from earlier work
[13] = read-out: Cytotoxicity IC50, MDA-MB-231, MDA-MB-231 cell line, MTT assay
[14] = read-out: Cytotoxicity IC50, HeLa, HeLa cell line, MTT assay
[15] = Homo sapiens, A549, read-out: Cytotoxicity IC50, A549, A549 cell line, MTT assay
[16] = Homo sapiens, HepG2, read-out: Cytotoxicity IC50, HepG2, HepG2 cell line, MTT assay
[17] = Homo sapiens, MOLT-3, read-out: Cytotoxicity IC50, MOLT-3, MOLT-3 cell line, XTT assay
[18] = Homo sapiens, HuCC-A1, read-out: Cytotoxicity IC50, HuCCA-1, HuCCA-1 cell line, MTT assay
[19] = MRC-5 cells (normal embryonic lung cells), Cytotoxicity IC50, MRC-5, MRC-5 normal cell line, MTT assay
[20] = Homo sapiens, MDA-MB-231, read-out: Cytotoxicity IC50, MDA-MB-231, MDA-MB-231 cell line, MTT assay
[21] = Homo sapiens, HeLa, read-out: Cytotoxicity IC50, HeLa, HeLa cell line, MTT assay
[22] = Homo sapiens, A549, read-out: Cytotoxicity IC50, A549
[23] = Homo sapiens, HepG2, read-out: Cytotoxicity IC50, HepG2
[24] = Homo sapiens, MOLT-3, read-out: Cytotoxicity IC50, MOLT-3
[25] = Homo sapiens, MDA-MB-231, read-out: Cytotoxicity IC50, MDA-MB-231
[26] = Homo sapiens, HeLa, read-out: Cytotoxicity IC50, HeLa
[27] = Homo sapiens, HuCC-A1, read-out: Cytotoxicity IC50, HuCCA-1

Row | Compound | IC50 [1, 15] | IC50 (HepG2 (hepatocarcinoma); [16]) | IC50 [2, 17] | IC50 [5, 18] | IC50 [3, 20] | IC50 [4, 21] | also measured
1 | COC1OC(C2=CC(=O)OC2O)CC=C1CCC=C(C)CCC1=C(C)CCCC1(C)C (stereo not drawn) [Compound 9, 24-O-methylmanoalide] |  |  |  |  |  |  | IC50 ([1]; read-out: Cytotoxicity IC50, A549, A549 cell line, MTT assay): 12 µM; IC50 (HepG2 (hepatocarcinoma); read-out: Cytotoxicity IC50, HepG2, HepG2 cell line, MTT assay): 27.9 µM; selectivity index (SI), MOLT-3 [2]: 8; IC50 ([2]; read-out: Cytotoxicity IC50, MOLT-3, MOLT-3 cell line, XTT assay): 1.3 µM; IC50 [3, 13]: 18.6 µM; selectivity index (SI), HeLa ([4]; ratio of IC50 of normal cell (MRC-5) and IC50 of HeLa): 7; IC50 [4, 14]: 1.51 µM; IC50 ([5]; read-out: Cytotoxicity IC50, HuCCA-1, HuCCA-1 cell line, MTT assay): 8.6 µM; IC50 [6]: 10.8 µM
2 | COC1OC(C2=CC(=O)OC2O)CC=C1CCC=C(C)CCC1=C(C)CCCC1(C)C (stereo not drawn) [Compound 8, 24-O-methylmanoalide] | 16.8 µM | 53.5 µM | 1.77 µM | 11 µM |  |  | selectivity index (SI), MOLT-3 [2]: 7; IC50 [3, 13]: 39.5 µM; IC50 [4, 14]: 8.42 µM; IC50 [7, 19]: 13 µM
3 | CC1(C)CCC[C@@]2(C)C1CC[C@]1(C)C2C[C@@H](O)[C@]2(C)C3C(=CCC12)C(=O)OC3O (stereo partly drawn) [Compound 20, 12-O-deacetyl-12-epi-scalarin] | 73.4 µM | 27.4 µM | 7.64 µM | 87.1 µM |  |  | IC50 (A549 cells): 36.8 µM; selectivity index (SI), MOLT-3 [2]: 9; IC50 [7, 19]: 71 µM
4 | CC(=O)O[C@@H]1CC2[C@@]3(C)CCCC(C)(C)C3CC[C@@]2(C)C2CCC3=C(C(=O)OC3)[C@]21C (stereo partly drawn) [Compound 17, 12-acetylscalarolide] |  |  |  | 60.8 µM | 60.8 µM | 63.1 µM | IC50 [8]: 42.1 µM; IC50 [9]: 63.1 µM; IC50 [10]: 107 µM
5 | CC1=C(CC/C(C)=C/CC/C(C=O)=C\C[C@@H](O)C2=CC(=O)OC2O)C(C)(C)CCC1 (stereo partly drawn) [Compound 14, seco-manoalide] |  |  |  |  |  |  | IC50 [1, 22]: 58.1 µM; IC50 (HepG2 (hepatocarcinoma); [23]): 102 µM; IC50 [2, 24]: 6.68 µM; IC50 [3, 25]: 84.1 µM; IC50 [4, 26]: 21.8 µM; IC50 [5, 27]: 47.4 µM; IC50 [7]: 17.5 µM
6 | CC(=O)O[C@@H]1CC2[C@@]3(C)CCCC(C)(C)C3CC[C@@]2(C)C2CC=C3C(=O)OC(O)C3[C@]21C (stereo partly drawn) [Compound 19, 12-epi-scalarin] | 60.8 µM | 75.5 µM | 13.8 µM | 60.8 µM |  | 65.3 µM | 
7 | COC(=O)c1cc2c(cn1)[nH]c1ccc(O)cc12 [Compound 23, variabine B] | > 50 µg/mL | > 50 µg/mL | 78 µM | > 50 µg/mL |  | > 50 µg/mL | 
8 | CC1=C(CC/C(C)=C/CC/C(=C\CC2OC(=O)C=C2CO)CO)C(C)(C)CCC1 (stereo not drawn) [Compound 12, (6E)-neomanoalide] | > 50 µg/mL | > 50 µg/mL | 37.8 µM | 119 µM | > 50 µg/mL | 79.2 µM | IC50 [11]: 24.4 µM
9 | COC1OC(=O)C=C1C(O)CC=C(C=O)CCC=C(C)CCC1=C(C)CCCC1(C)C (stereo not drawn) [Compound 3, seco-manoalide-25-methyl ether] | 41.1 µM | 27.9 µM | 15.8 µM | 24.7 µM | 40.1 µM | 20 µM | 
10 | CC1(C)CCC[C@@]2(C)C1CC[C@]1(C)C2C[C@@H](O)[C@]2(C)C3COC(=O)C3=CCC12 (stereo partly drawn) [Compound 18, 12-epi-O-deacetyl-19-deoxyscalarin] |  |  |  | 41.5 µM | 5.96 µM | 23.3 µM | IC50 [8]: 5.18 µM; IC50 [9]: 6.99 µM; IC50 [10]: 57 µM
11 | CC1=C(CC/C(C)=C/CC/C(=C/CC2OC(=O)C=C2CO)CO)C(C)(C)CCC1 (stereo not drawn) [Compound 13, (6Z)-neomanoalide] | 114 µM | 88.7 µM | 34.1 µM | 94.7 µM | 92 µM | 59.3 µM | IC50 [11]: 13.9 µM
12 | COc1cc([C@@H]2c3cc4c(cc3[C@@H](O[C@@H]3O[C@@H]5CO[C@@H](C)O[C@H]5[C@H](O)[C@H]3O)[C@H]3COC(=O)[C@H]23)OCO4)cc(OC)c1O [Etoposide, reference compound] |  |  | 0.04 ± 0.01 µM |  |  |  | 
13 | CC(=O)OC/C(=C\CC1OC(=O)C=C1CO)CC/C=C(\C)CCC1=C(C)CCCC1(C)C (stereo not drawn) [Compound 7, (6Z)-neomanoalide-24-acetate] | > 50 µg/mL | > 50 µg/mL | 40.1 µM | > 50 µg/mL | > 50 µg/mL | 88 µM | 
14 | CC1=C(CC/C(C)=C/CCC2=CC[C@H](C3=CC(=O)O[C@H]3O)O[C@H]2O)C(C)(C)CCC1 [Compound 11, manoalide] |  |  |  |  |  |  | IC50 [12]: 0.63 µM; IC50 [1, 22]: > 50 µg/mL; IC50 (HepG2 (hepatocarcinoma); [23]): > 50 µg/mL; IC50 [2, 24]: 17.4 µM; IC50 [3, 25]: > 50 µg/mL; IC50 [4, 26]: 87 µM; IC50 [5, 27]: 84.5 µM; IC50 ([11]; previously reported): 0.053 µM
15 | 4-((2R)-2-hydroxy-16-methyloctadecyl)furan-2(5H)-one [Compound 5] |  |  |  |  |  |  | IC50 [1]: 57.2 µM; IC50 (HepG2 (hepatocarcinoma)): 107 µM; IC50 [2]: 31.8 µM; IC50 [3]: 89.3 µM; IC50 [4]: 28.8 µM; IC50 [5]: 65.6 µM
16 | CC1=C(CC[C@@](C)(O)[C@@H]2CCC(=O)O2)C(C)(C)CCC1 [Compound 16, cavernosine] | > 50 µg/mL | > 50 µg/mL | 124 µM | > 50 µg/mL | > 50 µg/mL | 77.5 µM | 
17 | CC1=C(CC/C(C)=C/CC/C(=C/C[C@@H](O)C2=CC(=O)OC2)CO)C(C)(C)CCC1 [Compound 10, luffariolide B] | > 50 µg/mL | > 50 µg/mL | 35.5 µM | > 50 µg/mL | > 50 µg/mL | 78.7 µM | IC50 [11]: 3.23 µM
18 | COc1cccc2c1C(=O)c1c(O)c3c(c(O)c1C2=O)C[C@@](O)(C(=O)CO)C[C@@H]3O[C@H]1C[C@H](N)[C@H](O)[C@H](C)O1 [Doxorubicin, reference compound] | 0.35 ± 0.02 µM | 0.36 ± 0.05 µM |  | 0.4 ± 0.03 µM | 1.64 ± 0.17 µM | 0.19 µM | IC50 [9]: 1.64 ± 0.15 µM; IC50 [7, 19]: 3.16 ± 0.1 µM
19 | CC(=O)O[C@H]1C[C@H]2[C@]3(C)CC[C@H]4C(C)(C)CCC[C@]4(C)[C@H]3C[C@@H](O)[C@]2(C)c2cocc21 [Compound 15, scalarafuran] |  |  |  | 49.1 µM | 14 µM | 63.1 µM | IC50 [8]: 28 µM; IC50 [9]: 58.4 µM; IC50 [10]: 51.4 µM
